Data set [1] addresses T1, human amylin receptor (calcitonin receptor co-expressed with receptor activity modifying protein, RAMP3) (hAMYR3) (Homo sapiens, UniProt O60896+P30988).
T1 construct: expressed in transfected cells
T1 sequence (P30988 25-474): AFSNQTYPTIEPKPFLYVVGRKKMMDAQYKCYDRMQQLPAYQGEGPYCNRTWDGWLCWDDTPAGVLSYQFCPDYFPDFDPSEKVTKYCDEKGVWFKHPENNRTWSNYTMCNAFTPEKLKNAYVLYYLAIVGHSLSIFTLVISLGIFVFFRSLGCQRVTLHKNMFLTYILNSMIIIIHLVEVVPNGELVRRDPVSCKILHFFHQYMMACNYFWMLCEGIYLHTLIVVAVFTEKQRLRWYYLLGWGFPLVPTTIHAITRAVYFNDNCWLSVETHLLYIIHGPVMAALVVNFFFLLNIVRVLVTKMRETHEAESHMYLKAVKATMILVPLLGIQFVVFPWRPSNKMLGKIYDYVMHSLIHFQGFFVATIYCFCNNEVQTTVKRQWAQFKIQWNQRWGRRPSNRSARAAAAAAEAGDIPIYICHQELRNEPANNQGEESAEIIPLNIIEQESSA
T1 sequence (O60896 24-148 partner): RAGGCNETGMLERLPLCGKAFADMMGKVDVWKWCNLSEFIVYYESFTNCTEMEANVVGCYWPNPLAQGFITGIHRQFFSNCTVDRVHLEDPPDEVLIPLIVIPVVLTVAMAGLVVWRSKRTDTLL
Nature of the data set: cAMP production in 1321N1 cells with stable recombinant expression of human amylin receptor (hAMYR3). The class given is cell-based. The conditions noted are these: for Ratio (selectivity hAMYR vs hCTR, ratio of EC50 values at the two receptors): EC50 hCTR / EC50 hAMYR3; for EC50: cAMP, 1321N1 cells, assay buffer with 0.1% BSA, read-out: EC50 (pM) hAMYR3. The essentials:
(§1)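 Thawed cells in HBSS/0.1% BSA/25 mM HEPES pH 7.4 with 0.5 mM IBMX were incubated with peptides 30 min at room temperature; cAMP read by HTRF. EC50 from 4-parameter fit of % activation relative to maximal amylin or calcitonin effect.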
(Changes in cAMP serve as a functional read-out for many G protein-coupled receptors.)

Data set [2] has as its target T2, human calcitonin receptor (hCTR) (Homo sapiens, UniProt P30988).
T2 construct: expressed in transfected cells
T2 sequence (P30988 25-474): T1 sequence (P30988 25-474)
Put plainly: cAMP production in 1321N1 cells with stable recombinant expression of human calcitonin receptor (hCTR). The class given is cell-based. The settings on record: cAMP, 1321N1 cells, assay buffer with 0.1% BSA; read-out: EC50 (pM) hCTR. The essentials: as §1

Data set [3] concerns the target T3, rat amylin receptor (calcitonin receptor co-expressed with receptor activity modifying protein, RAMP3) (Rat AMYR3) (Rattus norvegicus, UniProt P32214+Q9JJ73).
T3 construct: expressed in transfected cells
T3 sequence (P32214 25-516): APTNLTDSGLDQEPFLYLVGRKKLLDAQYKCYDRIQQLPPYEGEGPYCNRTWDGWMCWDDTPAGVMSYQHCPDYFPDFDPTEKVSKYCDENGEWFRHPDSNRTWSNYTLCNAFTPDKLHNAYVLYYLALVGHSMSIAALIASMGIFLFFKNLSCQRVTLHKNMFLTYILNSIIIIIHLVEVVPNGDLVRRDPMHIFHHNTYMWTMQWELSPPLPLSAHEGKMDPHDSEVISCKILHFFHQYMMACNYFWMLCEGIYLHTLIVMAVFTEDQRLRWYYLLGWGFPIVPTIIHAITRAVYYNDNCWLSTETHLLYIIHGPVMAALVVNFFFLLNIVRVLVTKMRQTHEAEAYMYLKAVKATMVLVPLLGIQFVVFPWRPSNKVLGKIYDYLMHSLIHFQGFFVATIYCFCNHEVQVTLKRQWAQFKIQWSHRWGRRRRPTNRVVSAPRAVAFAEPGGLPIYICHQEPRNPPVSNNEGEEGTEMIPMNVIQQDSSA
T3 sequence (Q9JJ73 23-147 partner): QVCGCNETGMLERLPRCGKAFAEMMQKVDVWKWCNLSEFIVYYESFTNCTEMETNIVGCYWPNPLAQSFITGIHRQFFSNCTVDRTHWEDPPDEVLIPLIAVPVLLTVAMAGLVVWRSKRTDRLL
Put plainly: cAMP production in HEK cells with stable recombinant expression of rat amylin receptor (Rat AMYR3). Format: cell-based. The conditions noted are these: assay buffer with 0.1% BSA. As to the method: (§2) The functional activities of lipidated pramlintide analogue peptides, such as cAMP production, were tested in 1321N1 cell line with stable recombinant expression of human calcitonin receptor (hCTR) or human amylin receptor (calcitonin receptor co-expressed with receptor activity modifying protein, RAMP3) (hAMYR3) or HEK cells with stable recombinant expression of rat calcitonin receptor (rat CTR) or rat amylin receptor (calcitonin receptor co-expressed with receptor activity modifying protein, RAMP3) (Rat AMYR3).
(§3) Cryopreserved cell stock was thawed rapidly in a water-bath, suspended in assay buffer (0.1% BSA (Sigma # A3059) in HBSS (Sigma # H8264) with 25 mM HEPES, pH 7.4 and containing 0.5 mM IB MX (Sigma# 17018)) and spun at 240×g for 5 minutes. Cells were re-suspended in assay buffer at a batch-dependent optimized concentration (e.g. hCTR cells at 0.125×10^5 cells/mL, hAMYR3 cells at 0.125×10^5 cells/mL, rat CTR cells at 1x10^5 cells/mL, rat AMYR3 at 2×10^5 cells/mL).
(§4) The test peptide stock was prepared in DMSO and diluted in assay buffer to reach stated concentrations and transferred in duplicates into a 384-black shallow well microtitre assay plate (Corning # 3676). Cells were added to the assay plate, incubated at room temperature for 30 minutes and the cAMP level measured using cAMP dynamic 2 HTRF kit (Cisbio, Cat # 62AM4PEJ), following the two step protocol as per manufacturer's recommendations. The plates were read on an Envision (Perkin Elmer) using excitation wavelength of 320 nm and emission wavelengths of 620nm & 665 nm.
(§5) Data was transformed to % Delta F as described in the manufacturer's guidelines and analyzed as percent activation of maximal amylin or calcitonin effect by 4-parameter logistic fit to determine EC50 values. The selectivity of a peptide to hAMYR vs hCTR is defined as a ratio of EC50 values at the two receptors.

The target of data set [4] is T4, rat calcitonin receptor (rat CTR) (Rattus norvegicus, UniProt P32214).
T4 construct: expressed in transfected cells
T4 sequence (P32214 25-516): T3 sequence (P32214 25-516)
Nature of the data set: cAMP production in HEK cells with stable recombinant expression of rat calcitonin receptor (rat CTR). The class given is cell-based. The conditions noted are these: assay buffer with 0.1% BSA. The protocol: as §2, §3, §4, §5

Data set [5] deals with lean rats. Put plainly: Rat acute food intake study. Format: in vivo. The conditions noted are these: lean male Sprague Dawley rats, 20 nmol/kg subcutaneously. As to the method: Male Sprague Dawley rats were obtained from Taconic Denmark, ApS at approximately 7 weeks of age. Rats were implanted with a microchip for identification, housed 4/cage with enrichment, free access to food and water, and allowed one week acclimatisation while non-invasive characterization was performed. Rats were on a 12:12 light:dark cycle that switches at 1pm:1am. Food intake was monitored via the HM2 system (Lafayette Instrument) that allows for monitoring in a home cage. As each rat enters an access tunnel to feed, an IR beam is broken, and the implanted microchip is read. Resulting changes to food weight is then assigned to the specific animal. Social order has shown no impact to overall feeding patterns and amounts.
Rats were sorted into groups based on Day -1 body weight and 24-hour accumulated food intake (n=7 per group). On Day 0 rats were weighed, then fasted for 6 hours. Thirty (30) minutes prior to the reintroduction of food, rats were dosed subcutaneously (5 mL/kg) with 20 nmol/kg of test compound or 60 nmol/kg peptide 1 (pramlintide) diluted in an appropriate vehicle, after which food was returned, and lights went out. Automated food intake was monitored for the following 3 days, and rats were weighed once per day.
Food intake per rat was batched into 1-hour intervals and integrated into Gubra's GubraView data management system. Discrete food intake data was exported into MS Excel from which cumulative food intake data was generated. Cumulative food intake data was then transposed into GraphPad Prism (v8.0.1) for analysis of dark period feeding

A short description of data set [6]: in vivo. The conditions noted are these: male, Sprague-Dawley, rat, 20 nmol/kg.

Numbered stars: 1 amine (or outer) side, 2 acyl side, 3 side chain; on linkers, the order of the positions; unused ones are H or OH. Bridge positions count the residues as written; N and C are the ends. Square brackets hold non-standard residues; d marks the D form. Side chains are listed from the residue outwards. Peptide text beside a SMILES is read from it. * marks the point of attachment. C18 diacid = O=C(O)CCCCCCCCCCCCCCCCC(=O)*; γGlu = O=C(O)[C@H](CCC(=O)[*:2])N[*:1]; Aib = CC(C)(N)C(=O)O

The record followed here is patent publication US20240067693A1, “POLYPEPTIDES AND USES THEREOF” (MEDIMMUNE LIMITED, priority 2020, published 2024).

On to `CC[C@H](C)[C@H](NC(=O)[C@@H]1CCCN1C(=O)CNC(=O)[C@H](Cc1ccccc1)NC(=O)[C@H](CC(N)=O)NC(=O)C(C)(C)NC(=O)[C@H](CO)NC(=O)[C@H](CO)NC(=O)[C@H](Cc1c[nH]cn1)NC(=O)[C@@H](NC(=O)[C@H](CC(C)C)NC(=O)[C@H](Cc1ccccc1)NC(=O)[C@H](CC(N)=O)NC(=O)[C@H](C)NC(=O)[C@H](CC(C)C)NC(=O)[C@H](CCCNC(=N)N)NC(=O)[C@H](CCC(N)=O)NC(=O)[C@@H](NC(=O)[C@H](C)NC(=O)[C@@H]1CSSC[C@H](NC(=O)[C@H](CCCCN)NC(=O)[C@@H](N)CCCCNC(=O)CC[C@H](NC(=O)CCCCCCCCCCCCCCCCC(=O)O)C(=O)O)C(=O)N[C@@H](CC(N)=O)C(=O)N[C@@H]([C@@H](C)O)C(=O)N[C@@H](C)C(=O)N[C@@H]([C@@H](C)O)C(=O)N1)[C@@H](C)O)C(C)C)C(=O)N[C@@H](CC(C)C)C(=O)N1CCC[C@H]1C(=O)N1CCC[C@H]1C(=O)N[C@H](C(=O)N[C@@H](CC(N)=O)C(=O)N[C@H](C(=O)NCC(=O)N[C@@H](CO)C(=O)N[C@@H](CC(N)=O)C(=O)N[C@H](C(=O)N[C@@H](Cc1ccc(O)cc1)C(N)=O)[C@@H](C)O)C(C)C)[C@@H](C)O` [Peptide 35, K(γE-C18diacid)K[CNTATC]ATQRLANFLVHSS(Aib)NFGPILPPTNVGSNTY-amide] (H-K([γGlu-C18 diacid])KCNTATCATQRLANFLVHSS[Aib]NFGPILPPTNVGSNTY-NH2; disulfide 3-8; N-terminus assumed), for which the “Ratio (selectivity hAMYR vs hCTR, ratio of EC50 values at the two receptors)” value in data set [1] amounted to 55. For the same compound, the concentration for a half-maximal effect (EC50) amounted to 259 pM in data set [1], 14200 pM in data set [2], 5.9 pM in data set [3] and 514 pM in data set [4]. The “Cummulative food intake (% vehicle treated intake) At 12 h” value in data set [5] turned out to be 49.8 % vehicle treated intake. In addition, the “Cummulative food intake (% vehicle treated intake) At 24 h” value in data set [5] was determined as 44.8 % vehicle treated intake. Moreover, the “Cummulative food intake (% vehicle treated intake) At 48 h” value in data set [5] is 72 % vehicle treated intake. Also, the half-life in data set [6] (iv) is 5.4 h; in data set [6] (sc) it was 8.1 h.

With `CC[C@H](C)[C@H](NC(=O)[C@@H]1CCCN1C(=O)CNC(=O)[C@H](Cc1ccccc1)NC(=O)[C@H](CC(N)=O)NC(=O)C(C)(C)NC(=O)[C@H](CO)NC(=O)[C@H](CO)NC(=O)[C@H](Cc1c[nH]cn1)NC(=O)[C@@H](NC(=O)[C@H](CC(C)C)NC(=O)[C@H](Cc1ccccc1)NC(=O)[C@H](CC(N)=O)NC(=O)[C@H](C)NC(=O)[C@H](CC(C)C)NC(=O)[C@H](CCCNC(=N)N)NC(=O)[C@H](CCC(N)=O)NC(=O)[C@@H](NC(=O)[C@H](C)NC(=O)[C@@H]1CSSC[C@H](NC(=O)[C@H](CCCCN)NC(=O)[C@@H](N)CCCCNC(=O)CC[C@H](NC(=O)CCCCCCCCCCCCCCCCC(=O)O)C(=O)O)C(=O)N[C@@H](CC(N)=O)C(=O)N[C@@H]([C@@H](C)O)C(=O)N[C@@H](C)C(=O)N[C@@H]([C@@H](C)O)C(=O)N1)[C@@H](C)O)C(C)C)C(=O)N[C@@H](CC(C)C)C(=O)N1CCC[C@H]1C(=O)N1CCC[C@H]1C(=O)N[C@H](C(=O)N[C@@H](CCC(=O)O)C(=O)N[C@H](C(=O)NCC(=O)N[C@@H](CO)C(=O)N[C@@H](CC(N)=O)C(=O)N[C@H](C(=O)N[C@@H](Cc1ccc(O)cc1)C(N)=O)[C@@H](C)O)C(C)C)[C@@H](C)O` [Peptide 41, K(γE-C18diacid)K[CNTATC]ATQRLANFLVHSS(Aib)NFGPILPPTEVGSNTY-amide] (H-K([γGlu-C18 diacid])KCNTATCATQRLANFLVHSS[Aib]NFGPILPPTEVGSNTY-NH2; disulfide 3-8; N-terminus assumed), in data set [1], the “Ratio (selectivity hAMYR vs hCTR, ratio of EC50 values at the two receptors)” value worked out at 7. Besides, the EC50 in data set [1] was determined as 178 pM; in data set [2], 1180 pM; in data set [3] it was 8.2 pM; in data set [4], 925 pM. Also, in data set [5], the “Cummulative food intake (% vehicle treated intake) At 12 h” value is listed as 44.6 % vehicle treated intake. Besides, the “Cummulative food intake (% vehicle treated intake) At 24 h” value in data set [5] came to 38.5 % vehicle treated intake. Also, the “Cummulative food intake (% vehicle treated intake) At 48 h” value in data set [5] was found to be 58.8 % vehicle treated intake. Further, the half-life in data set [6] (iv) is 8.3 h; in data set [6] (sc) it was 10.1 h.

Usually EC50 stands for the concentration giving half of the maximal effect. The half-life is the time in which the quantity being followed falls by half.
